From patent US5302610A, “Renal-selective biphenylmethyl imidazole angiotensin II antagonists for treatment of hypertension” (G. D. Searle & Co., priority 1991, dated 1994) come the findings set out here.

This test has as its system vascular smooth muscle, AII response (rabbit aortic rings). Description: Assay B: In Vitro Vascular Smooth Muscle Response for AII (rabbit aortic rings). The test is classed as cell-based, rabbit (male New Zealand white). The note with it: Oryctolagus cuniculus, 5 min, antagonist 10^-5 M, three rabbits, read-out: Assay B PA2 (converted). How it is done:
Compound of Example #5 was tested for AII antagonist activity in rabbit aortic rings. Male New Zealand white rabbits (2-2.5 kg) were sacrificed using an overdose of pentobarbital and exsanguinated via the carotid arteries. The thoracic aorta was removed, cleaned of adherent fat and connective tissue and then cut into 3-mm ring segments. The endothelium was removed from the rings by gently sliding a rolled-up piece of filter paper into the vessel lumen. The rings were then mounted in a water-jacketed tissue bath, maintained at 37° C., between moveable and fixed ends of a stainless steel wire with the moveable end attached to an FT03 Grass transducer coupled to a Model 7D Grass Polygraph for recording isometric force responses. The bath was filled with 20 ml of oxygenated (95% oxygen/5% carbon dioxide) Krebs solution of the following composition […]: 130 NaCl, 15 NaHCO3, 15 KCl, 1.2 NaH2 PO4, 1.2 MgSO4, 2.5 CaCl2, and 11.4 glucose. The preparations were equilibrated for one hour before approximately one gram of passive tension was placed on the rings. Angiotensin II concentration-response curves were then recorded (3×10^-10 to 1×10^-5 M). […] The effectiveness of the test compound was expressed in terms of pA2 values and were calculated according to H. O. Schild [Br. J. Pharmacol. Chemother., 189-206 (1947)]. […] The test compound was evaluated in aorta rings from three rabbits.

As to `CCCCc1nc(Cl)c(CO)n1Cc1ccc(-c2ccccc2C(=O)O)cc1` [Example 5], the Kb is 74.1 nM.
